In experiment [1] the target is Torpedo californica AChE (TcAChE) (Tetronarce californica, UniProt P04058). The experiment can be described thus: biochemical. The experiment is classed as biochemical. The conditions noted are these: for Type of inhibition: Lineweaver-Burk, Dixon and Cornish-Bowden plots. The protocol:
The enzymatic activity of TcAChE was evaluated spectrophotometrically at room temperature by Ellman’s method[42] using a GE Ultrospec 7000 double beam spectrophotometer. […] The reaction was initiated by addition to the reaction mixture of the substrate acetylthiocoline (Sigma-Aldrich, Milan, Italy). To gain insights into the mechanism of action of 1, 2 and DNP, reciprocal plots of 1/velocity versus 1/[substrate] were constructed at substrate concentration in the 10–200 µM range. Data points are average values of three replicates. Three concentrations of inhibitors were selected for this study: 5, 10, and 20 nM. The plots were assessed by a weighted least-squares analysis that assumed the variance of the velocity (v) to be a constant percentage of v for the entire data set. Calculation of the inhibitor constant (Ki) value was carried out by re-plotting slopes of lines from the Lineweaver–Burk plot versus the inhibitor concentration and Ki was determined as the intersect on the negative x-axis. The apparent Ki’ (dissociation constant for the enzyme–substrate–inhibitor complex) value was determined by plotting the apparent 1/vmax versus inhibitor concentration. Data analyzes were performed with Graph 4.4.2.

Another experiment relates to mouse BACE-1. Particulars: read-out: IC50 for mouse BACE-1 inhibition; cited from earlier work.

Read-outs that look alike come from different tables or passages of the source.

Sequence of Torpedo californica AChE (TcAChE) (P04058 22-586): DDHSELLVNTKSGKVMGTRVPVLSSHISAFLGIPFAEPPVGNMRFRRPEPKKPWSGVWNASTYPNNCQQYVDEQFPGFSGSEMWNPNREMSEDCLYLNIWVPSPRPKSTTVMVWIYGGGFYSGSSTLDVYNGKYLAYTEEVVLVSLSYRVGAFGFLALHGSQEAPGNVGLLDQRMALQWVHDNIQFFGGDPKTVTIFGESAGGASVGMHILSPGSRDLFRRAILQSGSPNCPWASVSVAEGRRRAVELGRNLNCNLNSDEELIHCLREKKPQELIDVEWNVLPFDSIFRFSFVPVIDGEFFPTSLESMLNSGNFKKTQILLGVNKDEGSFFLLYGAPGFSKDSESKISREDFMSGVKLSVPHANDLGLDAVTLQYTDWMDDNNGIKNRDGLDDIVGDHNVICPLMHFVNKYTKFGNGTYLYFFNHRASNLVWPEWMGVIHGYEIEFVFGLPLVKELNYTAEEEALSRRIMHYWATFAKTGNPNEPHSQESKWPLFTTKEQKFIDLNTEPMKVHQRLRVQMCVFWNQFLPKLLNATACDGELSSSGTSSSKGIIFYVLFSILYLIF

On to `COc1cc2c(cc1OC)C(=O)/C(=C/C1CCN(Cc3ccccc3)CC1)C2` [compound 1], for which, in experiment [1], the Ki turned out to be 11.1 ± 2.88 nM and the Type of inhibition entry is “mixed-type inhibition”. For the same compound, the IC50 in the experiment on mouse BACE-1 is 697 nM.
As to `COc1cc2c(cc1OC)C(=O)C(CC1CCN(Cc3ccccc3)CC1)C2` (stereo not shown) [Donepezil, donepezil], the IC50 in the experiment with mouse BACE-1 was […].
In the case of `COc1ccc2c(c1)C/C(=C\C1CCN(Cc3ccccc3)CC1)C2=O` [compound 2], the Type of inhibition result in experiment [1] is given as “mixed-type inhibition”. The Ki in experiment [1] (acetylthiocholine 10–200 µM, inhibitor 5, 10, 20 nM, K-phosphate buffer pH 7.0, room temperature, read-out: Ki (dissociation constant for free enzyme)) stood at 29.9 ± 1.12 nM. Further, the IC50 in the experiment on mouse BACE-1 was 333 nM.

Usually Ki stands for the equilibrium dissociation constant of an inhibitor or competing ligand from its target. As a reminder, the IC50 is the concentration that gives 50% inhibition.

The values are drawn from article PMC6009889, “Kinetic and structural studies on the interactions of Torpedo californica acetylcholinesterase with two donepezil-like rigid analogues” (Journal of Enzyme Inhibition and Medicinal Chemistry, 2018).
